Assay results from patent US7192906B2, “Substituted pyrazole derivatives, production process thereof, and herbicide compositions containing the derivatives” (SDS Biotech K.K., priority 2001, dated 2007).

Legend:
Type in all cases: in vivo
Stellaria media [1] = assay: Test Example 1 upland field foliage treatment; conditions: Table 4, upland field foliage treatment, index 0-5
Outline: (§1)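 A leaf-surface application at an active-ingredient rate of 1 kg per hectare was made to 14-day-old plants in upland soil. Evaluation followed 21 days later using a six-grade scale, where grade 5 means at least 90% kill or phytotoxicity.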

Digitaria adscendens [2] = assay: Test Example 1 upland field foliage treatment; conditions: Table 4, upland field foliage treatment, index 0-5
Outline: as §1

Setaria viridis [3] = assay: Test Example 1 upland field foliage treatment; conditions: Table 4, upland field foliage treatment, index 0-5
Outline: as §1

Chenopodium album [4] = assay: Test Example 1 upland field foliage treatment; conditions: Table 4, upland field foliage treatment, index 0-5
Outline: as §1

Rice (Oryza sativa) = assay: Test Example 3 paddy field treatment, crop phytotoxicity; conditions: paddy field treatment, transplanted rice Koshihikari, wettable powder, active ingredient 1 kg per hectare, 21st day after the dropping, index 0-5
Outline: (§2)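 Scoring used a 0–5 scale of herbicidal effect or phytotoxicity, from <10% to ≥90%, taken 21 days after treatment. Treatment was 1 kg a.i./ha as diluted wettable powder dripped onto 4 cm-deep flooded pots sown with the weeds, 10 days after transplanting two-leaf Koshihikari rice.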

[5] = tested on: wheat (Triticum aestivum); assay: Test Example 1 upland field foliage treatment, crop phytotoxicity; conditions: Table 4, upland field foliage treatment, index 0-5
Outline: as §1

soybean (Glycine max) [6] = assay: as above; conditions: Table 4, upland field foliage treatment, index 0-5
Outline: as §1

[7] = tested on: wheat (Triticum aestivum); assay: Test Example 2 upland soil treatment, crop phytotoxicity; conditions: Table 5, upland soil treatment, index 0-5
Outline: (§3)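 Dose of 1 kg active ingredient per hectare, given as diluted wettable powder to the soil surface the day after sowing in upland soil (~1 cm cover). Effect rated 21 days on: 5 for ≥90%, 4 for 70–<90%, down to 0 for <10%.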

soybean (Glycine max) [8] = assay: as above; conditions: Table 5, upland soil treatment, index 0-5
Outline: as §3

Monochoria vaginalis = assay: Test Example 3 paddy field treatment; conditions: paddy field treatment, wettable powder, active ingredient 1 kg per hectare, 21st day after the dropping, index 0-5
Outline: as §2

Ammannia multiflora = assay: Test Example 3 paddy field treatment; conditions: paddy field treatment, wettable powder, active ingredient 1 kg per hectare, 21st day after the dropping, index 0-5
Outline: as §2

Scirpus juncoides = assay: Test Example 3 paddy field treatment; conditions: paddy field treatment, wettable powder, active ingredient 1 kg per hectare, 21st day after the dropping, index 0-5
Outline: as §2

Echinochloa crusgalli = assay: Test Example 3 paddy field treatment; conditions: paddy field treatment, wettable powder, active ingredient 1 kg per hectare, 21st day after the dropping, index 0-5
Outline: as §2

Stellaria media [9] = assay: Test Example 2 upland soil treatment; conditions: Table 5, upland soil treatment, index 0-5
Outline: as §3

Digitaria adscendens [10] = assay: Test Example 2 upland soil treatment; conditions: Table 5, upland soil treatment, index 0-5
Outline: as §3

Setaria viridis [11] = assay: Test Example 2 upland soil treatment; conditions: Table 5, upland soil treatment, index 0-5
Outline: as §3

Chenopodium album [12] = assay: Test Example 2 upland soil treatment; conditions: Table 5, upland soil treatment, index 0-5
Outline: as §3

SMILES: CON=C(Cn1cc(C)c(-c2ccccc2)n1)C(=O)NCc1ccccc1 [Compound 30]
- Herbicidal activity SM: Stellaria media (Stellaria media [1]): 3 (herbicidal effect of not less than 50% and less than 70%, or phytotoxicity of 50% or more and less than 70%)
- Herbicidal activity DA: Digitaria adscendens (Digitaria adscendens [2]): 4 (herbicidal effect of not less than 70% and less than 90%, or phytotoxicity of 70% or more and less than 90%)
- Herbicidal activity SV: Setaria viridis (Setaria viridis [3]): 3 (herbicidal effect of not less than 50% and less than 70%, or phytotoxicity of 50% or more and less than 70%)
- Herbicidal activity CA: Chenopodium album (Chenopodium album [4]): 4 (herbicidal effect of not less than 70% and less than 90%, or phytotoxicity of 70% or more and less than 90%)
- Herbicidal activity OS (phytotoxicity to rice) (Rice (Oryza sativa)): 0 (herbicidal effect of not less than 0% and less than 10%, or phytotoxicity of 0% or more and less than 10%)
- Herbicidal activity (phytotoxicity) TA: Wheat (Triticum aestivum) [5]: 0 (herbicidal effect of not less than 0% and less than 10%, or phytotoxicity of 0% or more and less than 10%)
- Herbicidal activity (phytotoxicity) GM: Soybean (Glycine max) (soybean (Glycine max) [6]): 0 (herbicidal effect of not less than 0% and less than 10%, or phytotoxicity of 0% or more and less than 10%)
- Herbicidal activity (phytotoxicity) TA: Wheat (Triticum aestivum) [7]: 0 (herbicidal effect of not less than 0% and less than 10%, or phytotoxicity of 0% or more and less than 10%)
- Herbicidal activity (phytotoxicity) GM: Soybean (Glycine max) (soybean (Glycine max) [8]): 0 (herbicidal effect of not less than 0% and less than 10%, or phytotoxicity of 0% or more and less than 10%)
- Herbicidal activity MV (Monochoria vaginalis): 5 (herbicidal effect of not less than 90%, or phytotoxicity of 90% or more)
- Herbicidal activity AM (Ammannia multiflora): 4 (herbicidal effect of not less than 70% and less than 90%, or phytotoxicity of 70% or more and less than 90%)
- Herbicidal activity SJ (Scirpus juncoides): 4 (herbicidal effect of not less than 70% and less than 90%, or phytotoxicity of 70% or more and less than 90%)
- Herbicidal activity EC (Echinochloa crusgalli): 4 (herbicidal effect of not less than 70% and less than 90%, or phytotoxicity of 70% or more and less than 90%)
- Herbicidal activity SM: Stellaria media (Stellaria media [9]): 3 (herbicidal effect of not less than 50% and less than 70%, or phytotoxicity of 50% or more and less than 70%)
- Herbicidal activity DA: Digitaria adscendens (Digitaria adscendens [10]): 3 (herbicidal effect of not less than 50% and less than 70%, or phytotoxicity of 50% or more and less than 70%)
- Herbicidal activity SV: Setaria viridis (Setaria viridis [11]): 4 (herbicidal effect of not less than 70% and less than 90%, or phytotoxicity of 70% or more and less than 90%)
- Herbicidal activity CA: Chenopodium album (Chenopodium album [12]): 4 (herbicidal effect of not less than 70% and less than 90%, or phytotoxicity of 70% or more and less than 90%)
